Data from US7998965B2, “Glutamate aggrecanase inhibitors” (Wyeth LLC, priority 2005, dated 2011).
Like-named read-outs stand apart in the source and are kept apart here.

Legend:
[1] = molecular target: T1, purified recombinant human Aggrecanase-2 (Ag2t-Phe628-Strep) (Homo sapiens, UniProt Q9UNA0); experiment: In vitro fluorescence screen for Aggrecanase-2 inhibitors; assay type: biochemical; settings: for IC50: read-out: Agg 2 IC50; for Ki: read-out: Ki Agg2
T1 construct: the form used is denoted as Ag2t-Phe628-Strep (MW=41,737)
T1 sequence (Q9UNA0 262-628): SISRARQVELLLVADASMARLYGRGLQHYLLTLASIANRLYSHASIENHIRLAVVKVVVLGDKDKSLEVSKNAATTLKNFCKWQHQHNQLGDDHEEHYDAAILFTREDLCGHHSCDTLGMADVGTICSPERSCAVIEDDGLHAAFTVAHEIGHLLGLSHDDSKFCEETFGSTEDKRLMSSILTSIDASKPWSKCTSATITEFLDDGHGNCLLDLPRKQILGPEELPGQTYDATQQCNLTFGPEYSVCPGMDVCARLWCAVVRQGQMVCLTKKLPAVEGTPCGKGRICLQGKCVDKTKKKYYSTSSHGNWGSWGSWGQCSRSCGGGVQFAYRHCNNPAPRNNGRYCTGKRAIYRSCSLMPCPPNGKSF

[2] = molecular target: T2, purified recombinant human Aggrecanase-1 (rAgg1) (Homo sapiens, UniProt O75173); experiment: In vitro fluorescence screen for Aggrecanase-1 inhibitors; assay type: biochemical; settings: for IC50: read-out: Agg1 IC50; for Ki: read-out: Ki Agg1
T2 sequence (O75173 213-837): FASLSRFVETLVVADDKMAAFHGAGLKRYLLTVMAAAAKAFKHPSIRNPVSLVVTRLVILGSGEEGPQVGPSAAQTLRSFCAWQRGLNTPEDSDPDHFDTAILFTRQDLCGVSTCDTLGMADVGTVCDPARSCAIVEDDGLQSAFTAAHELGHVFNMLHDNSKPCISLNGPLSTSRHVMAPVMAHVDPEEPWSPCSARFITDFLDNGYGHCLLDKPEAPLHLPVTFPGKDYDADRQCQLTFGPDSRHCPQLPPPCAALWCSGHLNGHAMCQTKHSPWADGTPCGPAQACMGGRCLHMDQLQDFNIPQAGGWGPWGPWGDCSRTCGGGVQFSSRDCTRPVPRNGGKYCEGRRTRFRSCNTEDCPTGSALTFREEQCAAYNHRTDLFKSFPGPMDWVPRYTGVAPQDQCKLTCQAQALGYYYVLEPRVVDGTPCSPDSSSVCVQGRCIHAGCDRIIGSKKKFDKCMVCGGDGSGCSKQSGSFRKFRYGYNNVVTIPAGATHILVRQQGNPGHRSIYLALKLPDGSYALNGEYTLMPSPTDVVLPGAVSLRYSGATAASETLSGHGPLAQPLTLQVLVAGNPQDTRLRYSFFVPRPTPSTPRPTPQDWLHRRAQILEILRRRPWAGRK

IC50 ([1]; Table 2) [nM]	IC50 ([2]; Table 2) [nM]	IC50 ([2]; Table 3) [nM]	Compound	further results
> 22000	> 17000		O=C(O)CC[C@H](NC(=O)c1ccc(Oc2ccccc2)cc1)C(=O)NCCCCCCO [Example 8TTTT, N^1-(6-hydroxyhexyl)-N^2-(4-phenoxybenzoyl)-L-α-glutamine]	
2010	389		C[C@@H](NC(=O)[C@H](CCC(=O)O)NC(=O)c1ccc(-c2ccccc2)cc1)c1ccc(F)cc1 [Example 8TTTTT, N^2-(biphenyl-4-ylcarbonyl)-N^1-[(1R)-1-(4-fluorophenyl)ethyl]-L-α-glutamine]	
		707	Cc1cccc(CNC(=O)[C@H](CCC(=O)O)NC(=O)c2ccc(-c3cccc(CBr)c3)cc2)c1 [Example 8TTTTTTT, N^2-{[3′-(bromomethyl)biphenyl-4-yl]carbonyl}-N-(3-methylbenzyl)-L-α-glutamine]	inhibition at 11 µM ([1]; Table 3, at 11000 (nM), read-out: Agg 2 % at concentration): 20%
~67000	> 17000		O=C(O)CC[C@H](NC(=O)C1c2ccccc2-c2ccccc21)C(=O)NCCCCCCO [Example 8UUUU, N^2-(9H-fluoren-9-ylcarbonyl)-N^1-(6-hydroxyhexyl)-L-α-glutamine]	
2120	317		C[C@@H](NC(=O)[C@H](CCC(=O)O)NC(=O)c1ccc(-c2ccccc2)cc1)c1ccccc1 [Example 8UUUUU, N^2-(biphenyl-4-ylcarbonyl)-N^1-[(1R)-1-phenylethyl]-L-α-glutamine]	
1560	221		C[C@@H](NC(=O)[C@H](CCC(=O)O)NC(=O)c1ccc2c(c1)Cc1ccccc1-2)c1ccccc1 [Example 8VVVVV, N^2-(9H-fluoren-2-ylcarbonyl)-N^1-[(1R)-1-phenylethyl]-L-α-glutamine]	
> 67000	8300		COc1cc(CNC(=O)[C@H](CCC(=O)O)NC(=O)c2cccc(Oc3ccccc3)c2)cc(OC)c1OC [Example 8WWWW, N^2-(3-phenoxybenzoyl)-N^1-(3,4,5-trimethoxybenzyl)-L-α-glutamine]	
> 67000	> 17000		O=C(O)CC[C@H](NC(=O)c1cccc2c1Cc1ccccc1-2)C(=O)NCCCCCCO [Example 8WWWWW, N^2-(9H-fluoren-1-ylcarbonyl)-N^1-(6-hydroxyhexyl)-L-α-glutamine]	
1450	246		O=C(O)CC[C@H](NC(=O)c1ccc2c(c1)C(=O)c1ccccc1-2)C(=O)NCCCCCCO [Example 8XXXXX, N^1-(6-hydroxyhexyl)-N^2-[(9-oxo-9H-fluoren-2-yl)carbonyl]-L-α-glutamine]	
		100	CC(C)(Cc1ccc(Cl)cc1)NC(=O)[C@H](CCC(=O)O)NC(=O)c1ccc(-c2ccccc2)nc1 [Example 8XXXXXXXX, N-[2-(4-chlorophenyl)-1,1-dimethylethyl]-N^2-[(6-phenylpyridin-3-yl)carbonyl]-L-α-glutamine]	IC50 ([1]; Table 3): 1700 nM
> 22000	> 17000		O=C(O)CC[C@H](NC(=O)c1ccc(Oc2ccccc2)cc1)C(=O)NC12CC3CC(CC(C3)C1)C2 [Example 8ZZZZ, N^1-1-adamantyl-N^2-(4-phenoxybenzoyl)-L-α-glutamine]	

The remaining lines, values behind:

Compound	IC50 ([1]; Table 2) [nM]	IC50 ([2]; Table 2) [nM]	IC50 ([2]; Table 3) [nM]	further results
CC(NC(=O)[C@H](CCC(=O)OC(C)(C)C)NC(=O)c1ccc(-c2ccccc2)cc1)c1ccccc1 (stereo partly drawn) [Example 8SSSSS, tert-butyl N^2-(biphenyl-4-ylcarbonyl)-N^1-(1-Phenylethyl)-L-α-glutaminate]	2470	208		
CC(C)(Cc1ccc(F)cc1)NC(=O)[C@H](CCC(=O)O)NC(=O)c1ccc(-c2ccc(F)c(Cl)c2)cc1 [Example 8SSSSSSS, N^2-[(3′-chloro-4′-fluorobiphenyl-4-yl)carbonyl]-N-[2-(4-fluorophenyl)-1,1-dimethylethyl]-L-α-glutamine]			57	IC50 ([1]; Table 3): 230 nM; Ki ([1]; Table 3): 356 nM; Ki ([2]; Table 3): 22 nM
COc1cc(CNC(=O)[C@H](CCC(=O)O)NC(=O)C2c3ccccc3-c3ccccc32)cc(OC)c1OC [Example 8VVVV, N^2-(9H-fluoren-9-ylcarbonyl)-N^1-(3,4,5-trimethoxybenzyl)-L-α-glutamine]	> 67000	> 17000		
COc1cc(CNC(=O)[C@H](CCC(=O)O)NC(=O)c2cccc3c2-c2ccccc2C3)cc(OC)c1OC [Example 8XXXX, N^2-(9H-fluoren-4-ylcarbonyl)-N^1-(3,4,5-trimethoxybenzyl)-L-α-glutamine]	> 200000	> 50000		
CC(C)(Cc1ccc(Cl)cc1)NC(=O)[C@H](CCC(=O)O)NC(=O)c1ccc(-c2cccs2)cc1 [Example 8XXXXXXX, N-[2-(4-chlorophenyl)-1,1-dimethylethyl]-N^2-[4-(2-thienyl)benzoyl]-L-α-glutamine]			< 30	IC50 ([1]; Table 3): 20 to 70 nM; Ki ([1]; Table 3): 56 nM; Ki ([2]; Table 3): 4.5 nM
O=C(O)CC[C@H](NC(=O)c1ccc(-c2ccccc2)cc1)C(=O)NCCc1cccc(Cl)c1 [Example 8YY, N^2-(1,1′-biphenyl-4-ylcarbonyl)-N^1-[2-(3-chlorophenyl)ethyl]-L-α-glutamine]				IC50 ([1]; Table 1): 4500 nM; IC50 ([2]; Table 1): 530 nM
O=C(O)CC[C@H](NC(=O)c1ccc2c(c1)C(=O)c1ccccc1-2)C(=O)NC12CC3CC(CC(C3)C1)C2 [Example 8YYYY, N^1-1-adamantyl-N^2-[(9-oxo-9H-fluoren-2-yl)carbonyl]-L-α-glutamine]	> 200000	1500		
COc1cccc(-c2ccc(C(=O)N[C@@H](CCC(=O)O)C(=O)NC(C)(C)Cc3ccc(Cl)cc3)s2)c1 [Example 8YYYYYYY, N-[2-(4-chlorophenyl)-1,1-dimethylethyl]-N^2-{[5-(3-methoxyphenyl)-2-thienyl]carbonyl}-L-α-glutamine]			< 30	IC50 ([1]; Table 3): 200 to 600 nM; Ki ([1]; Table 3): 197 nM; Ki ([2]; Table 3): 27 nM
CC(C)(Cc1ccc(Cl)cc1)NC(=O)[C@H](CCC(=O)O)NC(=O)c1ccc(-c2ccc(F)c(F)c2)cc1 [Example 8ZZZZZZ, N-[2-(4-chlorophenyl)-1,1-dimethylethyl]-N^2-[(3′,4′-difluorobiphenyl-4-yl)carbonyl]-L-α-glutamine]			< 30	IC50 ([1]; Table 3): 120 nM
CC(C)(Cc1ccc(Cl)cc1)NC(=O)[C@H](CCC(=O)O)NC(=O)c1ccc(-c2ccccc2)s1 [Example 8ZZZZZZZ, N-[2-(4-chlorophenyl)-1,1-dimethylethyl]-N^2-[(5-phenyl-2-thienyl)carbonyl]-L-α-glutamine]			< 30	IC50 ([1]; Table 3): 200 to 600 nM; Ki ([1]; Table 3): 290 nM; Ki ([2]; Table 3): 12.7 nM
CC(C)(Cc1ccc(F)cc1)NC(=O)[C@H](CCC(=O)O)NC(=O)c1ccc(-c2cccnc2)s1 [Example 8ZZZZZZZZ, N-[2-(4-fluorophenyl)-1,1-dimethylethyl]-N^2-[(5-pyridin-3-yl-2-thienyl)carbonyl]-L-α-glutamine]			20 to 70	IC50 ([1]; Table 3): 9900 nM
O=C(O)CC[C@H](NC(=O)c1ccc(-c2ccccc2)cc1)C(=O)NCCc1ccc(-c2ccc(C(F)(F)F)cc2)cc1 [Example 10A, N^2-(biphenyl-4-ylcarbonyl)-N^1-{2-[4′-(trifluoromethyl)biphenyl-4-yl]ethyl}-L-α-glutamine]				IC50 ([1]; Table 1): 2100 nM; IC50 ([2]; Table 1): 840 nM
O=C(O)CC[C@H](NC(=O)c1ccc(-c2ccccc2)cc1)C(=O)NCCc1ccc(-c2ccccc2)cc1 [Example 10C, N^2-(biphenyl-4-ylcarbonyl)-N^1-(2-biphenyl-4-ylethyl)-L-α-glutamine]				IC50 ([1]; Table 1): > 5000 nM; IC50 ([2]; Table 1): 240 nM
